Results as given in patent publication US20260001914A1, “MACROCYCLIC PEPTIDES TARGETING KRAS” (Merck Sharp & Dohme LLC, priority 2022, published 2026).
*1 amine or outer side, *2 acyl side, *3 side chain or, on linkers, in order; H or OH if unused. Where a SMILES comes first, the peptide text is derived from it. Bridges are numbered along the chain shown (N, C = ends). [ ]: non-standard residue; d: D form. The star is where a group is joined. Phe(4-guanidino) = N=C(N)Nc1ccc(C[C@H](N)C(=O)O)cc1; Ala(pyrimidin-5-yl) = N[C@@H](Cc1cncnc1)C(=O)O; Gly(N-(CH2)3-guanidino) = N=C(N)NCCCNCC(=O)O; NMe3Pal(6-Me) = CN[C@@H](Cc1ccc(C)nc1)C(=O)O; X36 = CN([C@@H](Cc1cnn(C)c1)C(=O)[*:2])[*:1]; X25 = O=C([C@H](Cc1ccc(F)nc1)N[*:1])[*:2]; Abu(4,4,4-F3) = N[C@@H](CC(F)(F)F)C(=O)O; NMeNva(5,5-F2) = CN[C@@H](CCC(F)F)C(=O)O; Phe(4-Cl) = N[C@@H](Cc1ccc(Cl)cc1)C(=O)O; X10 = CS(=O)(=O)CCCCN(CC(=O)[*:2])[*:1]; X30 = O=C([C@H](Cc1ncccc1F)N[*:1])[*:2]; NHCH2CH2SCH2CO = O=C(CSCCN[*:1])[*:2]; Phe(2-F) = N[C@@H](Cc1ccccc1F)C(=O)O; NMe3Pal = CN[C@@H](Cc1cccnc1)C(=O)O; X1 = O=C(C12CC(CN[*:1])(C1)C2)[*:2]; X12 = CC(=O)NCCCN(CC(=O)[*:2])[*:1]; NMeOrn(Me) = CNCCC[C@H](NC)C(=O)O; Ala(cPr) = N[C@@H](CC1CC1)C(=O)O; NMeF = CN[C@@H](Cc1ccccc1)C(=O)O; PhLac = O=C(O)[C@@H](O)Cc1ccccc1; 3Pal = N[C@@H](Cc1cccnc1)C(=O)O; Ahp(2) = CCCCC[C@H](N)C(=O)O; Cba = N[C@@H](CC1CCC1)C(=O)O; hLeu = CC(C)CC[C@H](N)C(=O)O; αMeC = C[C@](N)(CS)C(=O)O; NMeA = CN[C@@H](C)C(=O)O; Nle = CCCC[C@H](N)C(=O)O; Pra = C#CC[C@H](N)C(=O)O; Pyrrolidide = C1CCN(*)C1

The molecules below were run against KRAS-G12D protein (Homo sapiens, UniProt P01116, G12D) (assay: SOS-mediated nucleotide exchange assay (BODIPY-GDP / Tb-streptavidin TR-FRET)).
KRAS-G12D protein, sequence (P01116 1-188 isoform P01116-2 G12D): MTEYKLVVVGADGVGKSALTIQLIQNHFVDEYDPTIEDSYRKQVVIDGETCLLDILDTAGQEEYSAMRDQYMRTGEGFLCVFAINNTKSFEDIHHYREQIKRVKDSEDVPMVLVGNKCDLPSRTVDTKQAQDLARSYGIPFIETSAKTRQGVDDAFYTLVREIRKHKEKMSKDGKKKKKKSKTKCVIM
Format: biochemical

In order of falling EC50:
1. CCCC[C@@H]1NC(=O)[C@H](Cc2ccc(O)cc2)NC(=O)[C@H](CC(C)C)NC(=O)[C@H](Cc2ccc(O)cc2)NC(=O)[C@H](CCCNC(=N)N)NC(=O)[C@H](Cc2ccc(Cl)cc2)NC(=O)CSCCNC(=O)[C@H](Cc2ccccc2)N(C)C1=O [compound 74, cyclo(-Phe4Cl-R-Y-L-Y-Nle-NMeF-Cysteamine-ClAc)] (cyclo(LY[Nle][NMeF][NHCH2CH2SCH2CO][Phe(4-Cl)]RY))  7070 nM
2. C#CC[C@@H]1NC(=O)[C@H](CC2CC2)NC(=O)[C@H](Cc2cncnc2)NC(=O)[C@H](C)N(C)C(=O)[C@H](Cc2ccccc2)OC(=O)C23CC(CNC(=O)[C@H](Cc4ccccc4)N(C)C(=O)[C@H](CCC(C)C)NC1=O)(C2)C3 [compound 286, cyclo(FLac-NMeA-PyrimAla-cPrA-Pra-hL-NMeF-amBCP)] (cyclo([Ala(cPr)][Pra][hLeu][NMeF][X1][PhLac][NMeA][Ala(pyrimidin-5-yl)]))  1990 nM
3. CCCCC[C@@H]1NC(=O)[C@H](CC(=O)N2CCCC2)NC(=O)[C@H](CC2CCC2)NC(=O)[C@H](Cc2cccnc2)NC(=O)[C@H](CCCNC(=N)N)NC(=O)[C@H](Cc2ccccc2)NC(=O)CSC[C@@](C)(C(N)=O)NC(=O)[C@H](Cc2ccccc2)N(C)C1=O [compound 373, cyclo(F-R~3Pal-cBuA-PyD-Ahp-NMeF-aMeCl-ClAc)] ({CH2CO}-FR[3Pal][Cba]D(Pyrrolidide)[Ahp(2)][NMeF][αMeC]-NH2; thioether N-8)  1970 nM
4. CCCC[C@@H]1NC(=O)[C@H](Cc2ccc(F)nc2)NC(=O)[C@H](C)N(C)C(=O)[C@H](Cc2ccccc2)OC(=O)C23CC(CNC(=O)[C@H](Cc4ccccc4)N(C)C(=O)[C@H](CCCC)NC(=O)[C@H](Cc4ncccc4F)NC1=O)(C2)C3 [compound 228, cyclo(FLac-NMeA-4F3Pal-Nle-2Pal6F-Nle-NMeF-amBCP)] (cyclo([NMeA][X25][Nle][X30][Nle][NMeF][X1][PhLac]))  870 nM
5. CCCC[C@@H]1NC(=O)[C@H](CC(F)(F)F)NC(=O)[C@H](CC2CCC2)NC(=O)[C@H](Cc2cccnc2)NC(=O)[C@H](CCCNC(=N)N)NC(=O)[C@H](Cc2ccccc2)NC(=O)CSC[C@@](C)(C(N)=O)NC(=O)[C@H](Cc2ccccc2)N(C)C1=O [compound 54, cyclo(F-R-3Pal-cBuA-AbuF3-Nle-NMeF-aMeCl-ClAc)] ({CH2CO}-FR[3Pal][Cba][Abu(4,4,4-F3)][Nle][NMeF][αMeC]-NH2; thioether N-8)  861 nM
6. CCCC[C@@H]1NC(=O)[C@H](Cc2cccnc2)NC(=O)CN(CCCCS(C)(=O)=O)C(=O)[C@H](Cc2ccccc2)OC(=O)C23CC(CNC(=O)[C@H](Cc4cccnc4)N(C)C(=O)[C@H](CCCC)NC(=O)[C@H](Cc4ccccc4F)NC1=O)(C2)C3 [compound 407, cyclo(FLac-NOHmsbGly-3Pal-Nle-Phe2F-Nle-NMe3Pal-amBCP)] (cyclo([3Pal][Nle][Phe(2-F)][Nle][NMe3Pal][X1][PhLac][X10]))  367 nM
7. CCCC[C@@H]1NC(=O)[C@H](Cc2ccccc2F)NC(=O)[C@H](CCC(C)C)NC(=O)[C@H](Cc2cncnc2)NC(=O)[C@H](C)N(C)C(=O)[C@H](Cc2ccccc2)OC(=O)C23CC(CNC(=O)[C@H](Cc4cccnc4)N(C)C1=O)(C2)C3 [compound 127, cyclo(FLac-NMeA-PyrimAla-hL-Phe2F-Nle-NMe3Pal-amBCP)] (cyclo([NMe3Pal][X1][PhLac][NMeA][Ala(pyrimidin-5-yl)][hLeu][Phe(2-F)][Nle]))  228 nM
8. CC(C)CC[C@@H]1NC(=O)[C@H](Cc2ccccc2F)NC(=O)[C@H](CC2CC2)NC(=O)[C@H](Cc2cncnc2)NC(=O)[C@H](CCC(F)F)N(C)C(=O)[C@H](Cc2ccccc2)OC(=O)C23CC(CNC(=O)[C@H](Cc4ccccc4)N(C)C1=O)(C2)C3 [compound 217, cyclo(FLac-NMeNvaF2-PyrimAla-cPrA-Phe2F-hL-NMeF-amBCP)] (cyclo([Ala(cPr)][Phe(2-F)][hLeu][NMeF][X1][PhLac][NMeNva(5,5-F2)][Ala(pyrimidin-5-yl)]))  173 nM
9. CCCCC[C@@H]1NC(=O)[C@H](Cc2ccc(OC)cc2)NC(=O)[C@H](CC2CCC2)NC(=O)[C@H](Cc2ccc(NC(=N)N)cc2)NC(=O)CN(CCCNC(C)=O)C(=O)[C@H](Cc2ccccc2)NC(=O)CSC[C@@](C)(C(N)=O)NC(=O)[C@H](Cc2ccccc2)N(C)C1=O [compound 387, cyclo(F-AcApG-Phe4Gn-cBuA-TyrOMe-Ahp-NMcF-aMeCl-ClAc)] ({CH2CO}-F[X12][Phe(4-guanidino)][Cba]Y(Me)[Ahp(2)][NMeF][αMeC]-NH2; thioether N-8)  164 nM
10. CCCCC[C@@H]1NC(=O)[C@H](Cc2ccc(OC)cc2)NC(=O)[C@H](CC2CCC2)NC(=O)[C@H](Cc2cccnc2)NC(=O)[C@H](CCCNC)N(C)C(=O)[C@H](Cc2ccccc2)NC(=O)CSC[C@@](C)(C(N)=O)NC(=O)[C@H](Cc2ccc(C)nc2)N(C)C1=O [compound 393, cyclo(F-NMeOrnMe-3Pal-cBuA-TyrOMe-Ahp-NMe3Pal4Me-aMeCl-ClAc)] ({CH2CO}-F[NMeOrn(Me)][3Pal][Cba]Y(Me)[Ahp(2)][NMe3Pal(6-Me)][αMeC]-NH2; thioether N-8)  132 nM
11. CCCCC[C@@H]1NC(=O)[C@H](Cc2ccc(OC)cc2)NC(=O)[C@H](CC2CCC2)NC(=O)[C@H](Cc2cccnc2)NC(=O)[C@H](C)N(C)C(=O)[C@H](Cc2ccccc2)OC(=O)C23CC(CNC(=O)[C@H](Cc4ccccc4)N(C)C1=O)(C2)C3 [compound 227, cyclo(FLac-NMeA-3Pal-cBuA-TyrOMe-Ahp-NMeF-amBCP)] (cyclo([3Pal][Cba]Y(Me)[Ahp(2)][NMeF][X1][PhLac][NMeA]))  37.9 nM
12. CCCCC[C@@H]1NC(=O)[C@H](Cc2ccc(OC)cc2)NC(=O)[C@H](CC2CCC2)NC(=O)[C@H](Cc2ccc(NC(=N)N)cc2)NC(=O)CN(CCCNC(=N)N)C(=O)[C@H](Cc2ccccc2)NC(=O)CSC[C@@](C)(C(N)=O)NC(=O)[C@H](Cc2ccccc2)N(C)C1=O [compound 361, cyclo(F-NGnG-Phe4Gn-cBuA-TyrOMe-Ahp-NMeF-aMeCl-ClAc)] ({CH2CO}-F[Gly(N-(CH2)3-guanidino)][Phe(4-guanidino)][Cba]Y(Me)[Ahp(2)][NMeF][αMeC]-NH2; thioether N-8)  37 nM
13. CCCC[C@@H]1NC(=O)[C@H](Cc2cncnc2)NC(=O)[C@H](C)N(C)C(=O)[C@H](Cc2ccccc2)OC(=O)C23CC(CNC(=O)[C@H](Cc4ccccc4)N(C)C(=O)[C@H](CCCC)NC(=O)[C@H](Cc4ccccc4F)NC1=O)(C2)C3 [compound 230, cyclo(FLac-NMeA-PyrimAla-Nle-Phe2F-Nle-NMeF-amBCP)] (cyclo([NMeA][Ala(pyrimidin-5-yl)][Nle][Phe(2-F)][Nle][NMeF][X1][PhLac]))  17.4 nM
14. CCCC[C@@H]1NC(=O)[C@H](Cc2cccnc2)NC(=O)[C@H](C)N(C)C(=O)[C@H](Cc2ccccc2)OC(=O)C23CC(CNC(=O)[C@H](Cc4cnn(C)c4)N(C)C(=O)[C@H](CCCC)NC(=O)[C@H](Cc4ccccc4F)NC1=O)(C2)C3 [compound 403, cyclo(FLac-NMeA-3Pal-Nle-Phe2F-Nle-NMeAla4PyzlMe-amBCP)] (cyclo([3Pal][Nle][Phe(2-F)][Nle][X36][X1][PhLac][NMeA]))  17 nM
15. CCCCC[C@@H]1NC(=O)[C@H](Cc2ccc(OC)cc2)NC(=O)[C@H](CC2CCC2)NC(=O)[C@H](Cc2ccc(N(C)C(=N)NC)cc2)NC(=O)[C@H](CCCNC(=N)N)NC(=O)[C@H](Cc2ccccc2)NC(=O)CSC[C@@](C)(C(N)=O)NC(=O)[C@H](Cc2ccccc2)N(C)C1=O [compound 382, cyclo(F-R-Phe4GnMeMe-cBuA-TyrOMe-Ahp-NMeF-aMeCl-ClAc)]  1.6 nM
